Data reported in US9464053B2, “Compositions for reducing Aβ 42 production and their use in treating alzheimer's disease (AD)” (KAREUS THERAPEUTICS SA, priority 2010, dated 2016).
Structures can show the parent of a compound that is named as a salt. Where two headings read alike, the source gives them in different places. Marks after values point to notes of the source that are not given here. Blank lines part the entries; values can stand above or below the molecule they belong to.

What was measured:
Aβ42 secretion = assay: Reduction of Aβ42 production in human neuronal SH-SY5Y cells (sandwich ELISA of cell media); format: cell-based; settings: read-out: Aβ42 IC50
Experimental: We used the human Neuroblastoma SH-SY5Y cells for drug testing as a model for Aβ42 production. […] Cell toxicity was monitored using the MTT assay and all data reported are corrected for any cell loss.
The capture antibody, detection antibody and secondary antibody as well as standard purified preparations of Aβ42 were obtained from Sigma-Aldrich. Cells were cultured for 24 h in the presence or absence of compounds and the conditioned medium was subjected to sELISA.
Cells were incubated overnight with increasing concentrations the compounds. The cell media was then harvested and Aβ42 in the media was quantitated using sandwich ELISA.

soluble brain aβ-40 = assay: Tg2576 transgenic mouse model, soluble brain aβ-40 (ELISA); format: in vivo; settings: Tg 2576 mice, 4 weeks, 50 mg/kg orally daily
Experimental: (§1) The study used 6-month old Tg (HuApp695.K670-M671L) 2576 transgenic and age-matched C57B16/SJL non-transgenic control mice (Hsiao K, Chapman P, Nilsen S, Eckman C, Harigaya Y, et al. Correlative memory deficits, Abeta elevation, and amyloid plaques in transgenic mice. Science. 1996; 274:99-102). Mice were obtained from Jackson Labs and a colony was established. Tg2576 transgenic mice over-express human APP with the double Swedish mutation. Tg2756 and control mice were treated for a period of 4 weeks with either 1) vehicle alone n=10), 2) compound 9 (50 mg/kg dosed orally; n=10). Soluble brain aβ-42 and aβ-40 were measured using the typical ELISA protocol described before.

Aβ-42 levels in brain = assay: Brain Aβ-42 levels in rat after two weeks oral treatment (ELISA); format: in vivo; settings: for Aβ-42 levels Mean ± SE: rat brain, soluble fraction; for Percentage change: vs Control
Experimental: Animals are randomized into different treatment groups based on body weight. The test compounds are administered orally for 2 weeks while the control animals are administered the vehicle alone.
At the end of the study, animals are sacrificed 2 hours after the last dose and brain samples are excised and immediately frozen on dry ice. The frozen brains are homogenized in 3 volumes (w/v) of ice-cold 0.2% Diethylamine containing 50 mM NaCl, pH 10, and protease inhibitors, and then centrifuged at 15000 rpm at 4° C. for 30 min using a centrifuge. The resulting supernatant is retained as the soluble fraction and neutralized by addition of 10% 0.5 M Tris-HCl, pH 6.8.
Ar3-42 levels in brain tissue extracts were determined by ELISA. […] 100 μL of this was coated per well in a 96 well immunoplate (NUNC) at 4° C. for 16-18 hours. The plate was washed 3× with 230 μL of wash buffer. The wells were then blocked with 150 μL of blocking buffer for 1 hour. The plate was washed 3× with 230 μL of wash buffer. Samples, standard (2500-1.1 ng/ml) and blank were added to the appropriate wells and incubated with mild shaking for 2 hours. The plate was then washed 3× with 230 μL of wash buffer. […] 100 μL of this was added per well and incubated with mild shaking for 2 hours. The plate was washed 3× with 230 μl of wash buffer. 100 lit of Detection antibody, Anti-rabbit IgG whole molecule HRP conjugate (Sigma A6154 diluted 1:1000 with 1% BSA) added in to the wells and incubated for 2 hours with mild shaking. The plate was washed 3× with 230 μl of wash buffer followed by 100 μL of Strepavidin HRP (1:200 diluted with 1% BSA). The plate was 3× with 230 μL of wash buffer and 100 μL of TMB/H2O2 substrate was added and incubated for 20 minutes. The reaction was topped by adding 50 μL of 2N H2SO4 and the absorbance was measured at 450/570 nm in a microplate reader (BioTek)

Wistar rats = assay: Morris water maze task, scopolamine memory deficit; format: in vivo, rat; settings: mean, p.o., scopolamine-treated
Experimental: Male wistar rats are used for this study. The Water maze consists of a 1.8 m diameter; 0.6 m high circular tank filled with water (24±2° C.). A platform 16 cm diameter will be placed 1.0 cm below the water surface in the center of one of the four imaginary quadrants, which remains constant for all the rats. […] Rats were lowered gently, feet first into water. A rat was allowed to swim for 60 s to find the platform. If the platform was found during this time the trial was stopped and rat was allowed to stay on platform for 30 s before being removed from the maze. If the platform was not found during 60 s trial, then the rat was manually placed on the platform facing a visual cue and allowed to stay on platform for 30 s before being removed from the maze. The rats were taken off the platform (ensuring that the rat sees the investigator's hand from the front before removal) and dried with a towel gently. Each rat received 4 trials in a day. The maze has 8 starting points. On the first and third day the animals started from 1st, 3rd, 5th & 7th starting points. On the second and fourth day the animals started from 2nd, 4th, 6th & […] starting points. Retention of the task was assessed on 5th day in which each animal received a single 120 s probe trial during which platform was removed from the pool. Rats were not treated prior to retention trail. Rats were placed under a heating lamp for 5 min before being returned to its home cage. Latency to reach the platform ([…]), swim speed (cm/s) and path length (cm) was measured in acquisition trials. Percentage time spent in target quadrant (quadrant in which platform is placed during acquisition training) and swim speed (cm/s) was calculated in probe trial. The animals were tracked and the data was generated using the Video Mot 2 software. Experimentation was carried out over a period of 10 days i.e. first 6 animals was experimented on first five days and the next 6 animals was experimented on next five days (Pretreatment and testing schedule was initiated accordingly such that all animals receive 9 doses of vehicle or test drug). Data obtained was analyzed by Repeated measures Two way ANOVA followed by Bonferroni post tests by using the Graph pad prism software package.

soluble brain aβ-42 = assay: Tg2576 transgenic mouse model, soluble brain aβ-42 (ELISA); format: in vivo; settings: Tg 2576 mice, 4 weeks, 50 mg/kg orally daily
Experimental: as §1

[1] = SH-SY5Y cells incubated overnight, Aβ42 in media by sandwich ELISA
[2] = Day-1 acquisition trials, 1 mg/kg
[3] = Day-1 acquisition trials, 3 mg/kg
[4] = Day-1 acquisition trials, 10 mg/kg
[5] = Day-2 acquisition trials, 1 mg/kg
[6] = Day-2 acquisition trials, 3 mg/kg
[7] = Day-2 acquisition trials, 10 mg/kg
[8] = Day-3 acquisition trials, 1 mg/kg
[9] = Day-3 acquisition trials, 3 mg/kg
[10] = Day-3 acquisition trials, 10 mg/kg
[11] = Day-4 acquisition trials, 1 mg/kg
[12] = Day-4 acquisition trials, 3 mg/kg
[13] = Day-4 acquisition trials, 10 mg/kg

SMILES: C=CCc1ccc(OC(=O)COC(=O)c2cccnc2)c(OC)c1 (as salt: hydrochloride) [Compound 8, nicotinic acid 4-allyl-2-methoxy-phenoxycarbonylmethyl ester]
melting point: 109.3 to 111.2 °C

SMILES: C=CCc1ccc(OC(=O)C(Cc2c[nH]c3ccccc23)NC(=O)c2cccnc2)c(OC)c1 (centres unmarked) [Compound 4]
IC50 (Aβ42 secretion; [1]): > 52.2 µM

SMILES: C=CCc1ccc(OC(=O)C(Cc2ccc(O)cc2)NC(=O)c2cccnc2)c(OC)c1 (centres unmarked) [Compound 5, 3-(4-hydroxyphenyl)2-[(pyridine-3-carbonyl)amino]propionic acid-4-allyl-2-methoxy phenyl ester]
IC50 (Aβ42 secretion; [1]): > 52.2 µM

SMILES: C=CCc1ccc(OC(=O)C(NC(=O)c2cccnc2)C(C)CC)c(OC)c1 (centres unmarked) [Compound 6, 3-methyl-2-[pyridine-3-carbonyl]-amino-pentanoic acid-4-allyl-2-methoxy phenyl ester]
IC50 (Aβ42 secretion; [1]): > 52.2 µM

SMILES: C=CCc1ccc(OC(=O)C(CCC(=O)O)NC(=O)c2cccnc2)c(OC)c1 (centres unmarked) [Compound 7, 2-[pyridine-3-carbonyl-amino]-pentane dioic acid-1-(4-allyl-2-methoxyphenyl)ester]
IC50 (Aβ42 secretion; [1]): > 52.2 µM

SMILES: C=CCc1ccc(OC(=O)COC(=O)c2cccnc2)c(OC)c1 [Compound 8, nicotinic acid 4-allyl-2-methoxy-phenoxycarbonylmethyl ester]
IC50 (Aβ42 secretion; SH-SY5Y): > 15 µM

SMILES: C=CCc1ccc(OC(=O)C(CC(C)C)NC(=O)c2cccnc2)c(OC)c1 (centres unmarked) [Compound 15, 4-methyl-2-[pyridine-3-carbonyl]-amino-pentanoic acid-4-allyl-2-methoxy phenyl ester]
IC50 (Aβ42 secretion; [1]): > 52.2 µM

SMILES: CCC(C)(C)C(=O)O[C@H]1C[C@@H](C)C=C2C=C[C@H](C)[C@H](CC[C@@H]3C[C@@H](O)CC(=O)O3)[C@H]21 [Simvastatin, reference compound]
Percentage change (Aβ-42 levels in brain; Simvastatin 250 mg/kg oral, group terminated on day 12): 8%

Further lines, with some results ahead:

IC50 (Aβ42 secretion; [1]): > 52.2 µM
SMILES: C=CCc1ccc(OC(=O)C(CCSC)NC(=O)c2cccnc2)c(OC)c1 (centres unmarked) [Compound 2, 4-methyl-sulfanyl-2-[(pyridine-3carbonyl)-amino] butyric acid-4-allyl-2-methoxy phenyl ester]

IC50 (Aβ42 secretion; [1]): > 52.2 µM
SMILES: C=CCc1ccc(OC(=O)C(NC(=O)c2cccnc2)C(C)C)c(OC)c1 (centres unmarked) [Compound 3, 3-methyl-2-[pyridine-3-carbonyl]-amino-butyric acid-4-allyl-2-methoxy phenyl ester]

IC50 (Aβ42 secretion; [1]): 18.7 µM
SMILES: C=CCc1ccc(OC(=O)CC(OC(=O)c2cccnc2)C(=O)OC)c(OC)c1 (centres unmarked) [Compound 9, 2-(Pyridine-3-carbonyloxy)-succinic acid 4-(4-allyl-2-methoxy-phenyl) ester 1-methyl ester]
reduction of brain levels of soluble aβ-40 (soluble brain aβ-40): 23% | Aβ-42 levels Mean ± SE (Aβ-42 levels in brain; 10 mg/kg oral, 2 weeks): 44.14 ± 7.88 ng/mg protein | Aβ-42 levels Mean ± SE (Aβ-42 levels in brain; 25 mg/kg oral, 2 weeks): 31.03 ± 3.98 ng/mg protein | Aβ-42 levels Mean ± SE (Aβ-42 levels in brain; 50 mg/kg oral, 2 weeks): 21.85 ± 1.75 ng/mg protein | Percentage change (Aβ-42 levels in brain; 10 mg/kg oral, 2 weeks): −22% | Percentage change (Aβ-42 levels in brain; 25 mg/kg oral, 2 weeks): −45% | Percentage change (Aβ-42 levels in brain; 50 mg/kg oral, 2 weeks): −61% | Path length (Wistar rats; [2]): 1423.43 cm | Swim speed (Wistar rats; [2]): 26.53 cm/s | Target latency (Wistar rats; [2]): 53859.40 ms | Path length (Wistar rats; [3]): 1329.08 cm | Swim speed (Wistar rats; [3]): 25.77 cm/s | Target latency (Wistar rats; [3]): 50283.22^ ms | Path length (Wistar rats; [4]): 1480.57 cm | Swim speed (Wistar rats; [4]): 26.93 cm/s | Target latency (Wistar rats; [4]): 54445.94 ms | Path length (Wistar rats; [5]): 1619.28 cm | Swim speed (Wistar rats; [5]): 30.67 cm/s | Target latency (Wistar rats; [5]): 51421.60 ms | Path length (Wistar rats; [6]): 1503.53 cm | Swim speed (Wistar rats; [6]): 29.97 cm/s | Target latency (Wistar rats; [6]): 48347.97^ ms | Path length (Wistar rats; [7]): 1755.96 cm | Swim speed (Wistar rats; [7]): 31.99 cm/s | Target latency (Wistar rats; [7]): 53382.85 ms | Path length (Wistar rats; [8]): 1414.4745^ cm | Swim speed (Wistar rats; [8]): 31.07 cm/s | Target latency (Wistar rats; [8]): 43128.23 ms | Path length (Wistar rats; [9]): 1038.10** cm | Swim speed (Wistar rats; [9]): 28.45** cm/s | Target latency (Wistar rats; [9]): 32780.27** ms | Path length (Wistar rats; [10]): 1509.45 cm | Swim speed (Wistar rats; [10]): 30.89^ cm/s | Target latency (Wistar rats; [10]): 45171.54 ms | Path length (Wistar rats; [11]): 1233.92* cm | Swim speed (Wistar rats; [11]): 29.51* cm/s | Target latency (Wistar rats; [11]): 40643.54 ms | Path length (Wistar rats; [12]): 946.10*** cm | Swim speed (Wistar rats; [12]): 28.57*** cm/s | Target latency (Wistar rats; [12]): 31915.04*** ms | Path length (Wistar rats; [13]): 1254.41^ cm | Swim speed (Wistar rats; [13]): 29.36** cm/s | Target latency (Wistar rats; [13]): 40663.06 ms | reduction of brain levels of soluble aβ-42 (soluble brain aβ-42): 22%

IC50 (Aβ42 secretion; [1]): 33.4 µM
SMILES: C=CCc1ccc(OC(=O)C2CCCN2C(=O)c2cccnc2)c(OC)c1 (centres unmarked) [Compound 10, 1-(pyridine-3-carbonyl)-pyrrolidine-2-carboxylic acid 4-allyl-2-methoxy-phenyl ester]

IC50 (Aβ42 secretion; [1]): 15.9 µM
SMILES: C=CCc1ccc(OC(=O)CNC(=O)c2cccnc2)c(OC)c1 [Compound 11, [(pyridine-3-carbonyl)-amino]-acetic acid 4-allyl-2-methoxy-phenyl ester]

IC50 (Aβ42 secretion; [1]): 26.1 µM
SMILES: C=CCc1ccc(OC(=O)CCCNC(=O)c2cccnc2)c(OC)c1 [Compound 13, 4[(pyridine-3-carbonyl)-amino]-butyric acid-4-allyl-2-methoxy phenyl ester]

IC50 (Aβ42 secretion; [1]): 15.4 µM
SMILES: C=CCc1ccc(OC(=O)C(C)NC(=O)c2cccnc2)c(OC)c1 (centres unmarked) [Compound 14, 4-allyl-2-methoxyphenyl 2-(nicotinamido) propanoate]
